Test results taken from ChEMBL document CHEMBL2440042, “Anti-proliferative activity of hydnocarpin, a natural lignan, is associated with the suppression of Wnt/β-catenin signaling pathway in colon cancer cells” (Bioorg Med Chem Lett, 2013).

tested on: HEK293; assay: Inhibition of Wnt/beta-catenin signaling pathway in human HEK293 cells at 20 uM after 24 hrs by dual luciferase reporter gene assay relative to vehicle-treated control; conditions: HEK293, 24 h

SMILES | inhibition at 20 µM [%]
COc1cc([C@@H]2OC[C@@H]3[C@H]2CO[C@@H]3c2ccc(OC)c(OC)c2)ccc1O | 24.7
c1cc2c(cc1O[C@H]1OC[C@H]3[C@@H]1CO[C@@H]3c1ccc3c(c1)OCO3)OCO2 [SESAMOLIN] | 11.6
C=CCc1ccc(O)c(-c2cc(CC=C)ccc2O)c1 [MAGNOLOL] | 72.4
C/C=C(\C)C(=O)O[C@H]1c2cc(OC)c(OC)c(OC)c2-c2c(cc3c(c2O)OCO3)C[C@H](C)[C@]1(C)O [SCHISANTHERIN C] | -9.3
COc1ccc([C@@H]2OC[C@@H]3[C@H]2CO[C@H]3c2ccc(OC)c(OC)c2)cc1OC [EUDESMINE] | 26.3
COc1cc2c(c(OC)c1OC)-c1c(cc3c(c1OC)OCO3)C[C@H](C)[C@](C)(O)C2 [GOMISIN A] | 38.2
O=C(/C=C/c1ccc(O)c(O)c1)O[C@H](Cc1ccc(O)c(O)c1)C(=O)O [ROSMARINIC ACID] | 27
O=C/C=C/c1ccc2c(c1)OC(c1ccc3c(c1)OC(CO)C(c1ccc(O)c(O)c1)O3)C(CO)O2 (stereo not drawn) | 69.9
Oc1ccc2c(c1)OCO2 | 10.1
COc1ccc([C@@H]2OC[C@H]3[C@@H]2CO[C@@H]3c2ccc3c(c2)OCO3)cc1OC [FARGESIN] | 29.8
COc1cc([C@H]2OC[C@@H]3[C@@H]2CO[C@H]3c2cc(OC)c(O[C@@H]3O[C@H](CO)[C@@H](O)[C@H](O)[C@H]3O)c(OC)c2)cc(OC)c1O[C@@H]1O[C@H](CO)[C@@H](O)[C@H](O)[C@H]1O | 9.8
O=C/C=C/c1ccc2c(c1)O[C@@H](CO)[C@H](c1ccc(O)c(O)c1)O2 [AMERICANIN A] | 55
COc1cc2c(c(OC)c1OC)-c1c(cc(OC)c(OC)c1OC)C[C@](C)(O)[C@@H](C)C2 [SCHIZANDRIN] | 6.2
O[C@]12CO[C@H](c3ccc4c(c3)OCO4)[C@H]1CO[C@@H]2c1ccc2c(c1)OCO2 | -3.5
COC(=O)[C@@H](Cc1ccc(O)c(O)c1)OC(=O)/C=C/c1ccc(O)c2c1[C@@H](C(=O)O[C@H](Cc1ccc(O)c(O)c1)C(=O)OC)[C@H](c1ccc(O)c(O)c1)O2 | 10.5
COc1cc([C@@H](O)[C@@H](CO)Oc2ccc(CCCO)cc2O)ccc1O | -30.7
COc1cc(C[C@H]2COC(=O)[C@@H]2Cc2ccc(O[C@@H]3O[C@H](CO)[C@@H](O)[C@H](O)[C@H]3O)c(OC)c2)ccc1O [MATAIRESINOSIDE] | 9.3
C=CCc1ccc(O)c(-c2ccc(O)c(CC=C)c2)c1 [HONOKIOL] | 59.3
COc1cc2c(c(OC)c1OC)-c1c(cc3c(c1OC)OCO3)C[C@H](C)[C@H](C)C2 [WUWEIZISU B] | -17.8
COc1cc(CC(CO)c2cc(/C=C/CO)cc(OC)c2O[C@@H]2O[C@H](CO)[C@@H](O)[C@H](O)[C@H]2O)ccc1O (stereo partly drawn) | 11.4
COc1cc([C@H]2OC[C@H]3[C@@H]2CO[C@@H]3c2ccc3c(c2)OCO3)ccc1O[C@@H]1O[C@H](CO)[C@@H](O)[C@H](O)[C@H]1O [SIMPLEXOSIDE] | -13.6
c1cc2c(cc1[C@H]1OC[C@H]3[C@@H]1CO[C@@H]3c1ccc3c(c1)OCO3)OCO2 [SESAMIN] | 39.7
COc1cc([C@@H]2Oc3c(OC)cc(CCCO[C@@H]4O[C@H](CO)[C@@H](O)[C@H](O)[C@H]4O)cc3[C@H]2CO)ccc1O | -14.8
C/C=C/c1cc(OC)c2c(c1)C(C)C(c1ccc(O)c(OC)c1)O2 (stereo not drawn) [DEHRODIISOEUGENOL] | 28
COc1cc([C@@H]2Oc3c(OC)cc(CCCO)cc3[C@H]2CO)ccc1O [DIHYDRODEHYDRODICONIFERYL ALCOHOL] | 31.4
COc1cc([C@H]2c3c(cc(O)c(O)c3OC)C[C@@H](CO)[C@@H]2CO)ccc1O | 2.6
CC(=O)/C=C/C=C/c1ccc2c(c1)O[C@@H](CO)[C@H](c1ccc(O)c(O)c1)O2 | 0.6
COc1cc(C2Oc3cc([C@H]4Oc5cc(O)cc(O)c5C(=O)[C@@H]4O)ccc3OC2CO)ccc1O (stereo partly drawn) [SILIBININ] | 8.3
